For data set [1], the system named is microtubule protein (MTP). Put plainly: Electron microscopy of microtubules from the in vitro polymerization assay. It is filed as biochemical, calf. As to conditions: for Average Polymer Length (μm): microtubule lengths after assembly, minimum of 50 microtubules. The method, then: Aliquots (50 μL) were taken from the in vitro polymerization assay at the end of the reaction and placed onto 300-mesh carbon-coated, Formavar-treated copper grids. Samples were then stained with 20 μL of 2% uranyl acetate and viewed with a JEOL model 100CX electron microscope. To determine the lengths of the microtubules, electron micrograph negatives were scanned and then analyzed using IP Lab software. Measurements were performed on negatives at ×10000 and ×50000, with a minimum of 50 microtubules measured for each compound.
The microtubule protein from each in vitro assay was examined by electron microscopy to confirm that normal microtubules were formed in the presence of the compounds. In all cases, except for the DMSO control, microtubules were observed. […] Table 1 provides a comparison of microtubule lengths after assembly with Taxol, discodermolide and analogs I-i, I-ii, I-iii, and I-iv.

Data set [2] has as its system murine splenocytes. To be noted: in vitro; cited from earlier work.
The subject of the next data set is F1 recipient mice. To be noted: cited from earlier work.
For data set [3], the system named is A549 cells. Put plainly: Immunofluorescence (microtubules, DNA), A549 cells. Type of data set: cell-based, human. The protocol: In addition, cells were stained with Hoescht solution (Sigma; 1:2.5 dilution) for 15 min after the secondary antibody wash. Slides were analyzed using a Zeiss Axiophot microscope (rhodamine and DAPI filters) at ×100 magnification.

Data set [4] concerns A549 cells. Put plainly: Cytotoxicity assay, A549 cells. Type of data set: cell-based, human. The method, then: The A549 lung carcinoma cell line was maintained as described in Kavallaris, M., et al., “Taxol-resistant epithelial ovarian tumors are associated with altered expression of specific β-tubulin isotypes”, J. Clin. Invest., 1997, 100, 1282-1293.
(§1) A549 cells were seeded in triplicate at a density of 1×10^4 cells/ml in 6-well plates and allowed to attach for 24 h. After incubation with various drug concentrations for 72 h, adherent cells were trypsinized and counted (Coulter Counter model Z1; Coulter Corp., Miami, Fla.), and the IC50 was determined. SKOV3 cells were seeded at a density of 2×10^4 cells/ml and the above procedure followed.

For data set [5], the system named is tubulin. As to conditions: cited from earlier work.
Data set [6] has as its system microtubule protein (MTP). Put plainly: In vitro tubulin polymerization assay (turbidity at 350 nm). Type of data set: biochemical, calf. As to conditions: for induction of tubulin assembly in the absence of GTP / extent of polymerization after 100 min / initial slope (0-5 min), slope for (+)-discodermolide assigned 1.0: 10 μM; for induction of tubulin assembly in the absence of GTP: 37° C.; for extent of polymerization after 100 min: turbidity; for initial slope (0-5 min), slope for (+)-discodermolide assigned 1.0: first 5 min, relative to (+)-discodermolide; for stability of the microtubules formed against calcium-induced depolymerization: microtubules formed in the presence of the compound. The protocol:
(§2) All drugs were dissolved in sterile DMSO and stored at −20° C. Microtubule protein (MTP) was purified by 2 cycles of temperature-dependent assembly-disassembly from calf brain and stored in liquid nitrogen. See, for example, Welsenberg, R. C., “Microtubule formation in vitro in solutions containing low calcium concentrations”, Science, 1972, 177, 1104-1105.
Microtubule polymerization was evaluated by recording the change in turbidity of MTP at 350 nm for 100 min in a spectrophotometer (UVIKON, Research Instruments Int., San Diego, Calif.). See, for example, Shelanski, M. L., et al., “Microtuble assembly in the absence of added nucleotides”, Proc. Natl. Acad. Sci. USA, 1973, 70, 765-768. Purified MTP was diluted in assembly buffer containing 0.1 M MES, I mM EGTA, 0.5 mM MgCl2, and 3 M glycerol (pH 6.6) to a final concentration of 1 mg/ml. All compounds were evaluated at a concentration of 10 μM at 37° C. in the absence of GTP. The changes in absorption that occurred during the first 5 min were used to plot initial slopes from the linear portion of each curve in order to compare the initial activity of each compound.
The activities of Taxol, (+)-discodermolide, and several structural analogs were determined in the foregoing in vitro tubulin polymerization assay that measures changes in absorbance that correlate with the extent of microtubule polymerization. It will be appreciated that microtubule polymerization involves both nucleation (initiation) and elongation steps. The initial rates of polymerization reflect the nucleation process. See, for example, Gaskin, F., et al. “Turbidimetric studies of the in vitro assembly and disassembly of porcine neurotubules”, J. Mol. Biol., 1974, 89, 737-758.

In data set [7] the test system is tubulin. To be noted: cited from earlier work. This is another data set of the same source.
A further data set concerns SKOV3 cells. In words: Cytotoxicity assay, SKOV3 cells. It is filed as cell-based, human. The method, then: The SKOV3 ovarian carcinoma cell line was obtained from Dr. V. Ling and was maintained as described in McDaid, H. M., et al., “Structure-activity profiles of eleutherobin analogs and their cross-resistance in Taxol-resistant cell lines”, Cancer Chemother. Pharmacol., 1999, 44, 131-137.
as §1

The next data set relates to MCF-7 cells. As to conditions: cited from earlier work.
In data set [8] the test system is A549 cells. In words: Flow cytometry (cell cycle), A549 cells. To be noted: 24 h. It is filed as cell-based, human. Background: A flow cytometer gives signals particle by particle.
The subject of the next data set is microtubules. In words: Drug binding competition assay ([3H]Taxol binding to preformed microtubules). Details: species or system calf. The protocol:
as §2
The assay was performed using methods described in Bollag, D. M., et al., “Epothilones, a new class of microtubule-stabilizing agents with a Taxol-like mechanism of action”, Cancer-Res., 1995, 55, 2325-2333 and He, L., et al., “A common pharmacophore for Taxol and the epothilones based on the biological activity of a taxane molecule lacking a C-13 side chain”, Biochemistry, 2000, 39, 3972-3978. MTP (0.4 mg/ml) was incubated at 37° C. with 1 mM GTP and […] Taxol for 20 min to induce the assembly of microtubules. One hundred nanomolar [^3H]Taxol (specific activity: 19.3 Ci/mmol) and the indicated concentration of the competing agent were added simultaneously to the preformed microtubules. The mixtures were further incubated at 37° C. for 30 min to allow binding of [^3H]Taxol. Microtubules were collected by ultracentrifugation (100,000 g, 1 hr, 30° C.) and the radioactivity measured using a liquid scintillation counter. The inhibition of binding of [^3H]Taxol to microtubules was expressed as a percentage compared to the control (100%).

Data set [9] has as its system human carcinoma cell lines. As to conditions: in cells; cited from earlier work.
In data set [10] the test system is murine splenocytes. As to conditions: in vitro, cited from earlier work.
Setting [11] is: (+)-discodermolide 25 nM, analogs at different cytotoxic concentrations.

Molecules are shown by their SMILES. Read-outs that look alike come from different tables or passages of the source.

Data on two molecules can be found in patent US7652031B2, “Compounds which mimic the chemical and biological properties of discodermolide” (priority 2001, dated 2010).

The term IC50 denotes the concentration at which inhibition is half-maximal.

`C=C/C=C\[C@H](C)[C@H](OC(N)=O)[C@@H](C)[C@H](O)[C@@H](C)C/C(C)=C\[C@H](C)[C@@H](O)[C@@H](C)/C=C\[C@@H](O)C[C@@H]1OC(=O)[C@H](C)[C@@H](O)[C@H]1C` (single isomer, unassigned) [(+)-discodermolide]: in [1] (electron microscopy), the “microtubule length compared with GTP or Taxol” value is reported as “much shorter microtubules”. The “Average Polymer Length (μm)” value in data set [1] is given as 0.78 ± 0.3 μm. Also, the “suppression of the two-way mixed-lymphocyte reaction” value in the data set on murine splenocytes [2] is “suppresses”. The “potency in graft-vs.-host splenomegaly response” value in the data set with F1 recipient mice (compared with cyclosporin A and FK506) is “intermediate between those of cyclosporin A and FK506”. In addition, in the data set on F1 recipient mice (injection of parental splenocytes into F1 recipient mice), the “suppression of graft-vs.-host splenomegaly response” value is listed as “suppresses”. Also, in the data set with A549 cells [3], the “location of microtubule bundles in the cells” value was “at the periphery of the cells”. Moreover, in the data set on A549 cells [3] (setting [11]), the “microtubule bundles and condensed nuclear DNA” value was “Microtubule bundles and condensed nuclear DNA appeared”. In the data set with A549 cells [3] (effect seen at 25 nM and above), the “concentrations at which bundles and condensed DNA were not seen” value is given as “below 12 nM”. Besides, in the data set with A549 cells [4], the “inhibition of the proliferation of A549 cells” value was “inhibited the proliferation of A549 cells”. Further, the 50% inhibitory concentration (IC50) in the data set on A549 cells [4] (Homo sapiens, A549, 72 h, read-out: A549 (IC50(μm))) came to 3.8 nM; in the data set on SKOV3 cells (Homo sapiens, SK-OV-3, 72 h, read-out: SKOV3 (IC50(μm))), 31.3 ± 6.8 nM. In addition, the results for the “binding affinity compared with Taxol” value with tubulin [5] (listed as 1) and in the data set with tubulin [5] (listed as (+)-discoderrnolide) were “much higher” and “higher affinity for tubulin”, respectively. In addition, in data set [6], the “induction of tubulin assembly in the absence of GTP” value was “induced tubutin assembly in the absence of GTP”. In addition, the “extent of polymerization after 100 min” value in data set [6] is recorded as “essentially the same”. Besides, in data set [6], the “initial slope (0-5 min), slope for (+)-discodermolide assigned 1.0” value came out at 1.0. Moreover, the “level of polymerization by protein content in the supernatant” value in data set [6] (end of assay, 100,000 g for 30 min) is recorded as “comparable”. Moreover, the “stability of the microtubules formed against calcium-induced depolymerization” value in data set [6] is “stable against calcium-induced depolymerzation”. For the same molecule, in the data set on tubulin [7], the “potency at nucleating tubulin assembly compared to Taxol” value is on record as “more potent”. In addition, the “less active in SKOV3 compared to A549 cells” value in the data set with SKOV3 cells (SKOV3 vs A549) is on record as “approximately 8 fold”. Further, in the data set with MCF-7 cells, the “potency at inducing microtubule bundles compared to Taxol” value was “more potent”. The “hypodiploid population of cells (apoptosis)” value in the data set with A549 cells [8] (25 nM) is “increase in the hypodiploid population of cells”. Also, the “cell cycle block in G2/M phase” value in the data set on A549 cells [8] (setting [11]) is “blocked in the G2/M phase of the cell cycle”. Besides, the “inhibition of binding of [3H]Taxol to microtubules” value (“inhibition of binding of [3H]Taxol” for short) in the data set with microtubules (1 μM competing agent) was “very similar inhibition”; in the data set on microtubules (10 μM competing agent), “approximately 45%”; in the data set with microtubules (100 μM competing agent), about 95%. Besides, the “cytotoxicity compared with Taxol” value in data set [9] is given as “less cytotoxic than Taxol”. Moreover, the “suppression of concanavalin A-induced mitogenesis” value in the data set with murine splenocytes [10] was “suppresses”. The “cytotoxicity associated with the suppression” value in the data set with murine splenocytes [10] (mixed-lymphocyte reaction and mitogenesis assays) was “no associated cytotoxicity”.

As for `CC(=O)O[C@H]1C(=O)[C@@]2(C)[C@H]([C@H](OC(=O)c3ccccc3)[C@]3(O)C[C@H](OC(=O)[C@H](O)[C@@H](NC(=O)c4ccccc4)c4ccccc4)C(C)=C1C3(C)C)[C@]1(OC(C)=O)CO[C@@H]1C[C@@H]2O` [Taxol], the “Average Polymer Length (μm)” value in [1] is on record as 3.3 ± 1.2 μm. The “location of microtubule bundles in the cells” value in the data set with A549 cells [3] is listed as “throughout the cells”. Besides, in data set [6], the “induction of tubulin assembly in the absence of GTP” value was “induced tubutin assembly in the absence of GTP”; the “extent of polymerization after 100 min” value is on record as “essentially the same”; the “initial slope (0-5 min), slope for (+)-discodermolide assigned 1.0” value was 0.28; the “stability of the microtubules formed against calcium-induced depolymerization” value is “stable against calcium-induced depolymerzation”. In the data set on microtubules (1 μM competing agent), the “inhibition of binding of [3H]Taxol” value is on record as “very similar inhibition”. In addition, in the data set on microtubules (10 μM competing agent), the “inhibition of binding of [3H]Taxol” value is reported as “approximately 45%”. Also, the “inhibition of binding of [3H]Taxol” value in the data set with microtubules (100 μM competing agent) turned out to be 80%.
